In publication PMC7483467, “A small molecular compound CC1007 induces cross-lineage differentiation by inhibiting HDAC7 expression and HDAC7/MEF2C interaction in BCR-ABL1^− pre-B-ALL” (Cell Death & Disease, 2020):

Target: T1, MEF2C (Homo sapiens, UniProt Q06413)
T1 construct: endogenous intracellular protein in Nalm-6 and primary pre-B-ALL cells; untagged; detected by western blot
Assay: cellular thermal shift assay (CETSA and ITDRF-CETSA), western blot read-out
Format: cell-based
Details: Nalm-6 and primary BCR-ABL1- pre-B-ALL cells; dose-response at 52 °C; endogenous MEF2C

T1 sequence (Q06413 whole entry): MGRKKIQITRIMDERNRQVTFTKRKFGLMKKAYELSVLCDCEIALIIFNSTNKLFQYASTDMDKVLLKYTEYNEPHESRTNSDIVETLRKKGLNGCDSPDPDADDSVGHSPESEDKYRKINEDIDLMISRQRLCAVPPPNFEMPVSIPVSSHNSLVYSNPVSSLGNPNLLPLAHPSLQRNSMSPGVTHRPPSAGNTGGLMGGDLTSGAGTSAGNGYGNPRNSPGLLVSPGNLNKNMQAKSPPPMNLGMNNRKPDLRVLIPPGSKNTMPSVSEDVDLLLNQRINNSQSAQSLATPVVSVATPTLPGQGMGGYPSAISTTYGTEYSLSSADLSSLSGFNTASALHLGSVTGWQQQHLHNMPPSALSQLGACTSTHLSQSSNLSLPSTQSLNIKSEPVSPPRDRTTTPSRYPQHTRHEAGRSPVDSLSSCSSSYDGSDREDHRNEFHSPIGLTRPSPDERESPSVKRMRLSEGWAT

Nc1ccccc1NC(=O)CCCCCC(=O)Nc1cccc(Br)c1 [CC1007]
thermal stabilisation (CETSA): These data indicate that CC1007 directly interacts with intracellular MEF2C.
